Where a name gives a salt, the structure may show the parent alone. Square brackets hold non-standard residues; d marks the D form. Peptide text beside a SMILES is read from it. * marks the point of attachment. dChg = N[C@@H](C(=O)O)C1CCCCC1; Agmatine = N=C(N)NCCCCN*; Aze = O=C(O)[C@@H]1CCN1
How the values were obtained:
Type in all cases: biochemical
MASP-2 (CCP1-CCP2-SP) = MASP-2 (CCP1-CCP2-SP) (Homo sapiens (Human), UniProt O00187); experiment: biochemical; settings: for Ki: read-out: MASP-2 Ki
mMASP-2 = mMASP-2 (Mus musculus (Mouse), UniProt Q91WP0); experiment: Enzymatic inhibition of mMASP-2; settings: read-out: mMASP-2 Ki
human α-thrombin = human α-thrombin (Homo sapiens (Human), UniProt P00734); experiment: Enzymatic assay for thrombin (Boc-VPR-AMC substrate); settings: read-out: Thrombin Ki
[1] = MASP-2 inhibition versus thrombin

mMASP-2, sequence (Q91WP0 20-685): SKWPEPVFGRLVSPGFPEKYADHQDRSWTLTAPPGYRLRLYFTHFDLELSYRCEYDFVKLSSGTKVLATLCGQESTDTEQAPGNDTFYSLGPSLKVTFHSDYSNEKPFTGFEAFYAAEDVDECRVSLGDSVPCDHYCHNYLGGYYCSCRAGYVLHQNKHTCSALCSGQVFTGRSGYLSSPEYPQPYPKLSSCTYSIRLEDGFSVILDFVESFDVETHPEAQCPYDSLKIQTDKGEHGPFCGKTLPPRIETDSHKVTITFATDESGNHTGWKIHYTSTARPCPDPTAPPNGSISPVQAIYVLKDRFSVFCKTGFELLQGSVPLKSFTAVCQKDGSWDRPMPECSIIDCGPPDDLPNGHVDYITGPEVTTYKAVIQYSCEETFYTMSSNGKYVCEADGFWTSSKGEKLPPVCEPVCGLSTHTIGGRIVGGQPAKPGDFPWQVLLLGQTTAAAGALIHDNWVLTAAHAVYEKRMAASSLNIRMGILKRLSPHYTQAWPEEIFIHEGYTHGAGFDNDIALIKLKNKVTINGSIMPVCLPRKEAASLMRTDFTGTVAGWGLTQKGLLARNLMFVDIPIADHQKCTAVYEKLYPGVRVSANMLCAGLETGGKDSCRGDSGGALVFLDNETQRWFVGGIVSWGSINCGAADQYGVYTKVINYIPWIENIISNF
MASP-2 (CCP1-CCP2-SP), sequence (O00187 445-686): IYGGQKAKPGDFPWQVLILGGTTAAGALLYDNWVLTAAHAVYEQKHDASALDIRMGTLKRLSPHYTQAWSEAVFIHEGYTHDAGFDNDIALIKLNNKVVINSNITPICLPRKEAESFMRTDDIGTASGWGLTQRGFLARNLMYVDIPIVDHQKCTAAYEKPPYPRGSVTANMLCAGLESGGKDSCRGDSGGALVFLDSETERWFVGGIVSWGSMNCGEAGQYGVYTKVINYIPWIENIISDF

Q: Which results are given for `Cc1nc(N)ccc1CNC(=O)[C@H](C)NC(=O)[C@H]1C[C@@H](C(C)c2ccccc2)CN1` (mixture of isomers) [compound 1344, (2R,4S)—N—((S)-1-(((6-Amino-2-methylpyridin-3-yl)methyl)amino)-1-oxopropan-2-yl)-4-((±)-1-phenylethyl)pyrrolidine-2-carboxamide Dihydrochloride]?
A: Ki (MASP-2 (CCP1-CCP2-SP)): < 500 nM; MASP-2 vs. thrombin selectivity (MASP-2 (CCP1-CCP2-SP); selectivity for MASP-2 inhibition versus thrombin): **** (≥100-fold); Ki (mMASP-2): < 500 nM; Ki (human α-thrombin): 2500 to 10000 nM

Q: How did the Ki (mMASP-2) turn out when `C[C@H](NC(=O)C1CCC(c2ccccc2)CN1)C(=O)NCc1ccc(C(=N)N)cc1` (single isomer, unassigned) [compound 1067] was run?
A: < 500 nM

Q: How did the Ki (mMASP-2) turn out when `N=C(N)c1ccc(CNC(=O)[C@@H]2CCN2C(=O)[C@H](NCC(=O)O)C2CCCCC2)cc1` [compound 999, melagatran, reference compound] was run?
A: < 500 nM

Q: What does the source list for `N=C(N)NCCCCNC(=O)[C@@H]1CCN1C(=O)[C@H](N)C1CCCCC1` [compound 1006, (S)-1-((R)-2-Amino-2-cyclohexylacetyl)-N-(4-guanidinobutyl)azetidine-2-carboxamide Dihydrochloride] (H-[dChg]-[Aze]-Agmatine)?
A: MASP-2 vs. thrombin selectivity (MASP-2 (CCP1-CCP2-SP); [1]): −− (less than 1.0-fold); Ki (MASP-2 (CCP1-CCP2-SP)): < 500 nM; Ki (mMASP-2): < 500 nM; Ki (human α-thrombin): < 500 nM

Q: With `C[C@H](NC(=O)[C@H](N)CCc1ccccc1)C(=O)NCc1ccc2c(N)n[nH]c2c1` [compound 1039] as the compound, how does the Ki (mMASP-2) read?
A: < 25000 nM

Q: What about the Ki (human α-thrombin) of the same compound?
A: > 25000 nM

Q: How did the Ki (mMASP-2) turn out when `Cc1ccc(CC[C@@H](N)C(=O)N[C@@H](C)C(=O)NCc2ccc(C(=N)N)cc2)cc1` [compound 1043] was run?
A: < 500 nM

Q: Which “MASP-2 vs. thrombin selectivity” value (MASP-2 (CCP1-CCP2-SP); [1]) does the source give for `CN[C@H](CCc1ccccc1)C(=O)N[C@@H](C)C(=O)NCc1ccc(C(=N)N)cc1` [compound 1044] here?
A: ** (5.0 to 25-fold)

Q: And the Ki (MASP-2 (CCP1-CCP2-SP))?
A: < 500 nM

Q: What about the Ki (mMASP-2) of the same compound?
A: < 500 nM

Q: What about the Ki (human α-thrombin) of the same compound?
A: < 500 nM

Q: For `Cc1ccccc1CC[C@@H](N)C(=O)N[C@@H](C)C(=O)NCc1ccc(C(=N)N)cc1` [compound 1045], which “MASP-2 vs. thrombin selectivity” value (MASP-2 (CCP1-CCP2-SP); [1]) is on record?
A: ** (5.0 to 25-fold)

Q: And the Ki (MASP-2 (CCP1-CCP2-SP))?
A: < 500 nM

Q: And the Ki (mMASP-2)?
A: < 500 nM

Q: What about the Ki (human α-thrombin) of the same compound?
A: < 500 nM

Q: Which “MASP-2 vs. thrombin selectivity” value (MASP-2 (CCP1-CCP2-SP); [1]) does the source give for `Cc1cccc(CC[C@@H](N)C(=O)N[C@@H](C)C(=O)NCc2ccc(C(=N)N)cc2)c1` [compound 1046] here?
A: ** (5.0 to 25-fold)

Q: And the Ki (MASP-2 (CCP1-CCP2-SP))?
A: < 500 nM

Q: And the Ki (mMASP-2)?
A: < 500 nM

Q: And the Ki (human α-thrombin)?
A: < 500 nM

Q: `C[C@H](NC(=O)[C@H](N)CCc1cccc(F)c1)C(=O)NCc1ccc(C(=N)N)cc1` [compound 1048] was tested. Which “MASP-2 vs. thrombin selectivity” value (MASP-2 (CCP1-CCP2-SP); [1]) did it give?
A: ** (5.0 to 25-fold)

Q: And the Ki (MASP-2 (CCP1-CCP2-SP))?
A: < 500 nM

Q: What about the Ki (mMASP-2) of the same compound?
A: < 500 nM

Q: What about the Ki (human α-thrombin) of the same compound?
A: < 500 nM

Q: `C[C@H](NC(=O)[C@H]1C[C@@H](c2ccccc2)CCN1)C(=O)NCc1ccc(C(=N)N)cc1` [compound 1065] was tested. Which Ki (mMASP-2) did it give?
A: < 500 nM

Q: Which Ki (mMASP-2) does the source give for `C[C@H](NC(=O)[C@H]1C[C@](O)(c2ccccc2)CN1)C(=O)NCc1ccc(C(=N)N)cc1` [compound 1071] here?
A: < 500 nM

Q: How did the “MASP-2 vs. thrombin selectivity” value (MASP-2 (CCP1-CCP2-SP); [1]) turn out when `Cc1cccc(CC[C@@H](N)C(=O)N[C@@H](C)C(=O)NCc2ccc(C(=N)N)cc2)c1C` [compound 1072] was run?
A: ** (5.0 to 25-fold)

Q: And the Ki (MASP-2 (CCP1-CCP2-SP))?
A: < 500 nM

Q: And the Ki (mMASP-2)?
A: < 500 nM

Q: And the Ki (human α-thrombin)?
A: < 500 nM

Q: Which results are given for `Cc1cc(C)cc(CC[C@@H](N)C(=O)N[C@@H](C)C(=O)NCc2ccc(C(=N)N)cc2)c1` [compound 1073]?
A: MASP-2 vs. thrombin selectivity (MASP-2 (CCP1-CCP2-SP); [1]): ** (5.0 to 25-fold); Ki (MASP-2 (CCP1-CCP2-SP)): < 500 nM; Ki (mMASP-2): < 500 nM; Ki (human α-thrombin): < 500 nM

Q: What does the source list for `COc1ccccc1CC[C@@H](N)C(=O)N[C@@H](C)C(=O)NCc1ccc(C(=N)N)cc1` [compound 1074]?
A: MASP-2 vs. thrombin selectivity (MASP-2 (CCP1-CCP2-SP); [1]): ** (5.0 to 25-fold); Ki (MASP-2 (CCP1-CCP2-SP)): < 500 nM; Ki (mMASP-2): < 500 nM; Ki (human α-thrombin): < 500 nM

Q: `C[C@H](NC(=O)[C@H]1C[C@](O)(c2ccccc2)CCN1)C(=O)NCc1ccc(C(=N)N)cc1` [compound 1101] was tested. Which Ki (mMASP-2) did it give?
A: < 500 nM

Q: Which results are given for `C[C@H](NC(=O)[C@H](N)CCc1ccccc1)C(=O)NCCOc1ccc(N)nc1` [compound 1215]?
A: Ki (mMASP-2): < 25000 nM; Ki (human α-thrombin): > 25000 nM

Reference: patent publication US11584714B2 (priority 2018, dated 2023)
